Measured values from patent US20210115104A1, “AMYLIN ANALOGUES” (Zealand Pharma A/S, priority 2015, published 2021).
*1 amine or outer side, *2 acyl side, *3 side chain or, on linkers, in order; H or OH if unused. Where a SMILES comes first, the peptide text is derived from it. Bridges are numbered along the chain shown (N, C = ends). [ ]: non-standard residue; d: D form. The star is where a group is joined. C20 diacid = O=C(O)CCCCCCCCCCCCCCCCCCC(=O)*; γGlu = O=C(O)[C@H](CCC(=O)[*:2])N[*:1]; Hyp = O=C(O)[C@@H]1C[C@@H](O)CN1; NMeI = CC[C@H](C)[C@H](NC)C(=O)O; Sar = CNCC(=O)O

Legend:
[1] = target: T1, human calcitonin receptor (hCTR2) (Homo sapiens, UniProt P30988); assay: hCTR2 cAMP assay (AlphaScreen) in COS7 cells; assay type: cell-based; settings: cAMP induction, COS7 cells expressing hCTR2; Table 1; read-out: hCTR2 EC50
T1 construct: expressed in transfected cells
T1 sequence (P30988 25-474): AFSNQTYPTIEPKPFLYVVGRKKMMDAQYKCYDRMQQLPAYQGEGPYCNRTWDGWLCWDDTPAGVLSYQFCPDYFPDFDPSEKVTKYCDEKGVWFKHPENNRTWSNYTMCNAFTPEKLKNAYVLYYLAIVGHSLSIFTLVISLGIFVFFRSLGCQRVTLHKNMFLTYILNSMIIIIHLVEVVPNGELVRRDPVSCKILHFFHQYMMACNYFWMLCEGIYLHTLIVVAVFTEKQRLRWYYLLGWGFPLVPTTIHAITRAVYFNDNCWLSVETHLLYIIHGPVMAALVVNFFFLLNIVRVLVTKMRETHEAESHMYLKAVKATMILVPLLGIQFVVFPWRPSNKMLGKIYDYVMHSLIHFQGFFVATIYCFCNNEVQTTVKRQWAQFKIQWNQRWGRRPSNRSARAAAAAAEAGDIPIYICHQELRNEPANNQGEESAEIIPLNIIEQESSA
Outline: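 Stable hCTR2 clone in RAMP-naïve COS7 cells stimulated 15 min at 37 °C with increasing peptide concentrations in Tyrode buffer pH 7.4 containing IBMX and 0.1% casein. cAMP in lysates measured by AlphaScreen; EC50 from 4-parameter logistic fit.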

[2] = Assessment of physical stability (Thioflavin T fibrillation); assay type: physicochemical; set-up: key: FND = fibrillation not detected; FD = fibrillation detected; settings: 1 mg/ml, 40° C., ThT; for Fibrillation pH 4.0 (Ac): 50 mM acetate buffer pH 4.0, 96 hours; for Fibrillation pH 7.0 (His): 50 mM histidine buffer pH 7.0, 96 hours; for Fibrillation pH 7.0 (Phos.): 50 mM phosphate buffer pH 7.0, 96 hours
Outline: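 1 mg/ml peptide with 40 μM ThT in 50 mM phosphate pH 7.0, 50 mM histidine pH 7.0 or 50 mM acetate pH 4.0, in triplicate. Fluorescence read every 10 min after 300 s agitation over 96 h at 40 °C. Lag-time (h) is the intersection of linear fits to stable and growth phases.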

[3] = Assessment of chemical stability (RP-HPLC normalized purity); assay type: physicochemical; settings: 7 days, 40° C., Table 1; for Normalized purity after 7 days, 40° C., pH 4: pH 4, 0.2 mg/ml; for Normalized purity after 7 days, 40° C., pH 6: pH 6, 0.2 mg/ml; for Normalized purity after 7 days, 40° C., pH 7.5: pH 7.5, 0.2 mg/ml; for Normalized purity after 7 days, 40° C., pH 9: pH 9, 0.2 mg/ml
Outline: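 Peptides at 0.2 mg/ml in water adjusted to pH 4, 6, 7.5 or 9, incubated at 40° C for 7 days. Main-peak area-% by RP-HPLC (C8 ammonium formate or C18 TFA gradient, UV 220 nm), normalized to T=0 as 100.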

[4] = Pharmacokinetic (PK) profiling in rats; assay type: in vivo, rat; set-up: CI/F (apparent clearance values): unit not given here; settings: Sprague Dawley male rats, single sc 30 nmol/kg
Protocol: Sprague Dawley male rats were given a single subcutaneous (sc) bolus of each peptide to be tested, as specified below. 30 nmol/kg doses of compound were administered. Blood samples were drawn from the tail vein prior to dosing and at 24, 48, 72, 96 and 168 hours after dosing. Blood samples were taken from two rats at each time point, and only 2 blood samples were drawn from each rat, i.e. […] were used for each compound. The rats were euthanized immediately after the last blood sampling by concussion and cervical dislocation.
The dosing vehicle used for each test peptide was a mannitol-containing histidine buffer (pH 7.0). Plasma samples were analyzed after precipitation with ethanol by liquid chromatography mass spectrometry (LC-MS/MS). Mean plasma concentrations were used for calculation of the pharmacokinetic parameters using the non-compartmental approach in Phoenix WinNonlin 6.3.
Plasma terminal elimination half-life (t1/2) was determined as ln(2)/λz, where λz is the magnitude of the slope of the log linear regression of the log concentration versus time profile during the terminal phase. Apparent clearance (CL/F) was determined as dose/AUCinf (sc), where AUCinf is the area under the plasma concentration vs. time curve extrapolated to infinity (AUCinf=AUClast+Clast/λz, where Clast is the last observed plasma concentration).

[5] = target: T2, human amylin receptor 3 (hAMYR3), hCTR2 co-expressed with hRAMP3 (Homo sapiens, UniProt O60896+P30988); assay: hAMYR3 cAMP assay (AlphaScreen) in COS7 cells; assay type: cell-based; settings: cAMP induction, COS7 cells expressing hAMYR3; Table 1; read-out: hAMYR3 EC50
T2 construct: expressed in transfected cells
T2 sequence (P30988 25-474): T1 sequence (P30988 25-474)
T2 sequence (O60896 24-148 partner): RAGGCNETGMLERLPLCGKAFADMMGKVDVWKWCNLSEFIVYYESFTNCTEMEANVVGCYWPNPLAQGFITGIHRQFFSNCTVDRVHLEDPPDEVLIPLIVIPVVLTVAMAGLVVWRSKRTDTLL
Outline: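 Stable COS7 clone co-expressing hCTR2 and hRAMP3 was exposed to increasing peptide concentrations in Tyrode buffer (pH 7.4) with 100 µM IBMX and 0.1% casein for 15 min at 37 °C. Lysate cAMP was measured by AlphaScreen; EC50 came from 4-parameter logistic fitting.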

## CC[C@H](C)[C@@H](C(=O)N[C@@H](CC(C)C)C(=O)N[C@@H](CO)C(=O)N[C@@H](CO)C(=O)N[C@H](C(=O)N[C@@H](CCC(=O)O)C(=O)N[C@H](C(=O)NCC(=O)N[C@@H](CO)C(=O)N[C@@H](CO)C(=O)N[C@H](C(=O)N1C[C@H](O)C[C@H]1C(N)=O)[C@@H](C)O)C(C)C)[C@@H](C)O)N(C)C(=O)[C@H](C)NC(=O)CN(C)C(=O)[C@H](Cc1ccccc1)NC(=O)[C@H](CO)NC(=O)[C@H](CO)NC(=O)[C@H](CCCNC(=N)N)NC(=O)[C@@H](NC(=O)[C@H](CC(C)C)NC(=O)[C@H](Cc1ccccc1)NC(=O)[C@H](Cc1c[nH]cn1)NC(=O)[C@H](C)NC(=O)[C@H](CC(C)C)NC(=O)[C@H](CCCNC(=N)N)NC(=O)[C@H](CCC(=O)O)NC(=O)[C@@H](NC(=O)[C@H](C)NC(=O)[C@@H]1CSSC[C@H](NC(=O)[C@H](CCCNC(=N)N)NC(=O)CC[C@H](NC(=O)CCCCCCCCCCCCCCCCCCC(=O)O)C(=O)O)C(=O)NCC(=O)N[C@@H]([C@@H](C)O)C(=O)N[C@@H](C)C(=O)N[C@@H]([C@@H](C)O)C(=O)N1)[C@@H](C)O)[C@@H](C)O [Compound 9, [19CD]-isoGlu-R-C( )-GTAT-C( )-ATERLAHFLTRSSF-Gly(Me)-A-Ile(Me)-LSSTEVGSST-Hyp-NH2] ({C20 diacid-γGlu}-RCGTATCATERLAHFLTRSSF[Sar]A[NMeI]LSSTEVGSST[Hyp]-NH2; disulfide 2-7)
[1]
  EC50: 0.099 nM
[2]
  Fibrillation pH 4.0 (Ac): FND
  Fibrillation pH 7.0 (His): FD
  Fibrillation pH 7.0 (Phos.): FD
[3]
  Normalized purity after 7 days, 40° C., pH 4: A (A = >90%)
  Normalized purity after 7 days, 40° C., pH 6: B (B = 70-90%)
  Normalized purity after 7 days, 40° C., pH 7.5: B (B = 70-90%)
  Normalized purity after 7 days, 40° C., pH 9: B (B = 70-90%)
[4]
  CI/F (apparent clearance values): 0.0096

## CC[C@H](C)[C@@H](C(=O)N[C@@H](CC(C)C)C(=O)N[C@@H](CO)C(=O)N[C@@H](CO)C(=O)N[C@H](C(=O)N[C@@H](CCC(=O)O)C(=O)N[C@H](C(=O)NCC(=O)N[C@@H](CO)C(=O)NCC(=O)N[C@H](C(=O)N1C[C@H](O)C[C@H]1C(N)=O)[C@@H](C)O)C(C)C)[C@@H](C)O)N(C)C(=O)[C@H](C)NC(=O)CN(C)C(=O)[C@H](Cc1ccccc1)NC(=O)[C@H](CO)NC(=O)[C@H](CO)NC(=O)[C@H](CCCNC(=N)N)NC(=O)[C@H](CCC(N)=O)NC(=O)[C@H](CC(C)C)NC(=O)[C@H](Cc1ccccc1)NC(=O)[C@H](Cc1c[nH]cn1)NC(=O)[C@H](C)NC(=O)[C@H](CC(C)C)NC(=O)[C@H](CCCNC(=N)N)NC(=O)[C@H](CC(=O)O)NC(=O)[C@@H](NC(=O)[C@H](C)NC(=O)[C@@H]1CSSC[C@H](NC(=O)[C@H](CCCNC(=N)N)NC(=O)CC[C@H](NC(=O)CCCCCCCCCCCCCCCCCCC(=O)O)C(=O)O)C(=O)N[C@@H](CCC(N)=O)C(=O)N[C@@H]([C@@H](C)O)C(=O)N[C@@H](C)C(=O)N[C@@H]([C@@H](C)O)C(=O)N1)[C@@H](C)O [Compound 91, [19CD]-isoGlu-R-C( )-QTAT-C( )-ATDRLAHFLQRSSF-Gly(Me)-A-Ile(Me)-LSSTEVGSGT-Hyp-NH2] ({C20 diacid-γGlu}-RCQTATCATDRLAHFLQRSSF[Sar]A[NMeI]LSSTEVGSGT[Hyp]-NH2; disulfide 2-7)
[1]
  EC50: 0.08 nM
[5]
  EC50: 0.17 nM
[2]
  Fibrillation pH 4.0 (Ac): FND
  Fibrillation pH 7.0 (His): FND
  Fibrillation pH 7.0 (Phos.): FND
[3]
  Normalized purity after 7 days, 40° C., pH 4: A (A = >90%)
  Normalized purity after 7 days, 40° C., pH 6: A (A = >90%)
  Normalized purity after 7 days, 40° C., pH 7.5: A (A = >90%)
  Normalized purity after 7 days, 40° C., pH 9: A (A = >90%)

## CC[C@H](C)[C@@H](C(=O)N[C@@H](CC(C)C)C(=O)N[C@@H](CO)C(=O)N[C@@H](CO)C(=O)N[C@H](C(=O)N[C@@H](CCC(=O)O)C(=O)N[C@H](C(=O)NCC(=O)N[C@@H](CO)C(=O)N[C@@H](CC(N)=O)C(=O)N[C@H](C(=O)N1CCC[C@H]1C(N)=O)[C@@H](C)O)C(C)C)[C@@H](C)O)N(C)C(=O)[C@H](C)NC(=O)CN(C)C(=O)[C@H](Cc1ccccc1)NC(=O)[C@H](CCCNC(=N)N)NC(=O)[C@H](CCC(N)=O)NC(=O)[C@H](CC(C)C)NC(=O)[C@H](Cc1ccccc1)NC(=O)[C@H](Cc1c[nH]cn1)NC(=O)[C@H](C)NC(=O)[C@H](CC(C)C)NC(=O)[C@H](CCCNC(=N)N)NC(=O)[C@H](CCC(=O)O)NC(=O)[C@@H](NC(=O)[C@H](C)NC(=O)[C@@H]1CSSC[C@H](NC(=O)[C@H](CCCNC(=N)N)NC(=O)CC[C@H](NC(=O)CCCCCCCCCCCCCCCCCCC(=O)O)C(=O)O)C(=O)N[C@@H](CCC(N)=O)C(=O)N[C@@H]([C@@H](C)O)C(=O)N[C@@H](C)C(=O)N[C@@H]([C@@H](C)O)C(=O)N1)[C@@H](C)O [Compound 96, [19CD]-isoGlu-R-C( )-QTAT-C( )-ATERLAHFLQRF-Gly(Me)-A-Ile(Me)-LSSTEVGSNTP-NH2] ({C20 diacid-γGlu}-RCQTATCATERLAHFLQRF[Sar]A[NMeI]LSSTEVGSNTP-NH2; disulfide 2-7)
[1]
  EC50: 0.33 nM
[5]
  EC50: 0.28 nM
[2]
  Fibrillation pH 4.0 (Ac): FND
  Fibrillation pH 7.0 (His): FND
  Fibrillation pH 7.0 (Phos.): FND
[3]
  Normalized purity after 7 days, 40° C., pH 4: A (A = >90%)
  Normalized purity after 7 days, 40° C., pH 6: A (A = >90%)
  Normalized purity after 7 days, 40° C., pH 7.5: A (A = >90%)
  Normalized purity after 7 days, 40° C., pH 9: A (A = >90%)
